This passage reports IC50 results from patent publication US10479780B2, “Aminopyrazole derivatives” (Chugai Seiyaku Kabushiki Kaisha, priority 2015, dated 2019).

Format in all cases: biochemical
For one assay, the target named is T1, human Src enzyme (Homo sapiens, UniProt P12931).
T1 construct: purchased Carna Biosciences, Inc. 08-173
Nature of the assay: Src enzyme inhibitory activity (time-resolved fluorometry, biotinylated peptide phosphorylation). The following applies: read-out: SRC_IC50. The essentials: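 Compounds were tested for blocking tyrosine phosphorylation of a biotinylated peptide substrate by recombinant human Src. Phosphorylated product was quantified by time-resolved fluorometry using europium cryptate and XL665 conjugates, and IC50 was calculated against the compound-free control.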

For the next assay, the target named is T2, human Yes1 enzyme (Homo sapiens, UniProt P07947).
T2 construct: made in house
T2 sequence (P07947 whole entry): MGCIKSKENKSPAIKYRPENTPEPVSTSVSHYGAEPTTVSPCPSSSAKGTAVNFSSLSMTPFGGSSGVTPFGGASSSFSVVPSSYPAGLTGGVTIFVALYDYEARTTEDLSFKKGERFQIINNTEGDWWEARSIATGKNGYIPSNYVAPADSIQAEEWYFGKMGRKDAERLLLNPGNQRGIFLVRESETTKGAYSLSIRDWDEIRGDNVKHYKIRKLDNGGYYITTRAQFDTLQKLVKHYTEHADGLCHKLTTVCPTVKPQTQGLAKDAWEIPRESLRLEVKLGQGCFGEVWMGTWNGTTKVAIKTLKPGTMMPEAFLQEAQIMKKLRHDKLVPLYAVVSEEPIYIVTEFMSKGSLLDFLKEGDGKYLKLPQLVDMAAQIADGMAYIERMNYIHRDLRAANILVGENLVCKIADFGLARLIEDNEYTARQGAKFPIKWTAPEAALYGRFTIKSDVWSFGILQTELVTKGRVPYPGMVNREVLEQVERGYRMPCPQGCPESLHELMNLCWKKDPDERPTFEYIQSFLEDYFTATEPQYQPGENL
Description: Yes1 enzyme inhibitory activity (time-resolved fluorometry, biotinylated peptide phosphorylation). The note with it: read-out: YES_IC50. The essentials: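 Inhibition was expressed against a compound-free control to give IC50, using TR-FRET read-out (Eu-cryptate anti-pTyr antibody, streptavidin-XL665).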

Another assay has as its target T3, human Lck enzyme (Homo sapiens, UniProt P06239).
T3 construct: purchased Carna Biosciences, Inc. 08-170
Description: Lck enzyme inhibitory activity (time-resolved fluorometry, biotinylated peptide phosphorylation). The note with it: read-out: LCK_IC50. The essentials:
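Readout pairs a europium cryptate-labelled anti-phosphotyrosine antibody with XL665-streptavidin, measured by time-resolved fluorescence. IC50 derived from percent inhibition against untreated controls.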

Setting [1] is: biotinylated peptide phosphorylation.

Where two headings read alike, the source gives them in different places.

T1 sequence (P12931 whole entry): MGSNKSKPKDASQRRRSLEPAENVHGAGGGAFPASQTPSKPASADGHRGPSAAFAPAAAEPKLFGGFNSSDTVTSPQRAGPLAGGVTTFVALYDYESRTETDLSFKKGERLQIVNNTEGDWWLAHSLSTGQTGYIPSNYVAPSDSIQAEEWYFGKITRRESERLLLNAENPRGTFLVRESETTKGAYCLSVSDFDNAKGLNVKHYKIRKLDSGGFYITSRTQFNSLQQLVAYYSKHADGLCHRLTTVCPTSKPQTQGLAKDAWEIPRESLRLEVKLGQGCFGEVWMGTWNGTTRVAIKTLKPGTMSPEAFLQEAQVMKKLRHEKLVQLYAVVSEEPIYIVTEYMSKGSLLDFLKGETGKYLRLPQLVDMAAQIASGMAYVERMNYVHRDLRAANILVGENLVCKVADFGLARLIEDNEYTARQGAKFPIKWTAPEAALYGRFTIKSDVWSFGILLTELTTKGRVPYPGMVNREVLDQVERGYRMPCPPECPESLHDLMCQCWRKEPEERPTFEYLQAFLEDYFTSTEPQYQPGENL
T3 sequence (P06239 whole entry): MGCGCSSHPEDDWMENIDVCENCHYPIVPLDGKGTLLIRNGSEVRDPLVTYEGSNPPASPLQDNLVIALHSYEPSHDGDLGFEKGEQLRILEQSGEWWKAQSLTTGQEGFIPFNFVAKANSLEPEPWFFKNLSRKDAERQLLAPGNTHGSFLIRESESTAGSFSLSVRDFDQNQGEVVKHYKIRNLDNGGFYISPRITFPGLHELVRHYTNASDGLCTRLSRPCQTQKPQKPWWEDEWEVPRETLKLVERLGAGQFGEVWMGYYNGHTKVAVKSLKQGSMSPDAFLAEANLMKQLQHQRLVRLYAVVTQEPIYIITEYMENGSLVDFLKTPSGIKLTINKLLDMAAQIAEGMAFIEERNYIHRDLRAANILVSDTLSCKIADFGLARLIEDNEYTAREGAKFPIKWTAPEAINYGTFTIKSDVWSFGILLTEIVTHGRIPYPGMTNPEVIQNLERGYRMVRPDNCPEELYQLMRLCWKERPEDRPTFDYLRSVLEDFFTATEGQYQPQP

For the compound `Cc1cc(Oc2cc(F)ccc2Cl)ncc1-n1ncc(C(=O)c2cc3cc(F)c(NS(C)(=O)=O)cc3[nH]2)c1N` [Example 4-2-034, N-[2-[5-amino-1-[6-(2-chloro-5-fluorophenoxy)-4-methylpyridin-3-yl]pyrazole-4-carbonyl]-5-fluoro-1H-indol-6-yl]methanesulfonamide], the IC50 came out at 140 nM on human Src enzyme (setting [1]), 4.6 nM on human Yes1 enzyme (setting [1]) and 44 nM at human Lck enzyme (setting [1]).
Regarding `Cc1cc(-n2ncc(C(=O)c3cc4cc(N5CCOCC5)c(N5CCOC5=O)cc4[nH]3)c2N)ccc1Oc1ccccc1F` [Example 5-1-160, 3-[2-[5-amino-1-[4-(2-fluorophenoxy)-3-methylphenyl]pyrazole-4-carbonyl]-5-morpholin-4-yl-1H-indol-6-yl]-1,3-oxazolidin-2-one], the IC50 on human Src enzyme came out at 230 nM; on human Yes1 enzyme, 0.71 nM; at human Lck enzyme it was 33 nM.
In the case of `Cc1cc(Oc2c(F)cccc2F)ncc1-n1ncc(C(=O)c2cc3cc(OC(F)F)c(C4CCN(S(C)(=O)=O)CC4)cc3[nH]2)c1N` [Example 4-17-012, [5-amino-1-[6-(2,6-difluorophenoxy)-4-methylpyridin-3-yl]pyrazol-4-yl]-[5-(difluoromethoxy)-6-(1-methylsulfonylpiperidin-4-yl)-1H-indol-2-yl]methanone], the IC50 at human Src enzyme (setting [1]) came out at 45 nM; at human Yes1 enzyme (setting [1]) it was 16 nM; at human Lck enzyme (setting [1]), 30 nM.
Regarding `Nc1c(C(=O)c2cc3cc(F)c(NS(=O)(=O)CCCF)cc3[nH]2)cnn1-c1ccc(Oc2ccccn2)cc1Cl` [Example 4-2-018, N-[2-[5-amino-1-(2-chloro-4-pyridin-2-yloxyphenyl)pyrazole-4-carbonyl]-5-fluoro-1H-indol-6-yl]-3-fluoropropane-1-sulfonamide], the IC50 on human Src enzyme (setting [1]) turned out to be 22 nM; on human Yes1 enzyme (setting [1]), 0.52 nM; at human Lck enzyme (setting [1]), 15 nM.
As to `Cc1cc(Oc2ccccc2F)ccc1-n1ncc(C(=O)c2cc3cc(F)c(N4C(=O)N[C@@H](C)C4=O)cc3[nH]2)c1N` [Example 5-1-411, (5S)-3-[2-[5-amino-1-[4-(2-fluorophenoxy)-2-methylphenyl]pyrazole-4-carbonyl]-5-fluoro-1H-indol-6-yl]-5-methylimidazolidine-2,4-dione], the IC50 came out at 37 nM on human Src enzyme (setting [1]), 0.73 nM on human Yes1 enzyme (setting [1]) and 4.2 nM on human Lck enzyme (setting [1]).
Take `Cc1cc2cc(C(=O)c3cnn(-c4cnc(Oc5ccccc5F)cc4C)c3N)[nH]c2cc1C1CCN(S(=O)(=O)C2CC2)CC1` [Example 5-1-123, [5-amino-1-[6-(2-fluorophenoxy)-4-methylpyridin-3-yl]pyrazol-4-yl]-[6-(1-cyclopropylsulfonylpiperidin-4-yl)-5-methyl-1H-indol-2-yl]methanone]: the values for the IC50 on human Src enzyme, on human Yes1 enzyme and at human Lck enzyme were 91 nM, 2 nM and 33 nM, respectively.
Regarding `Cc1cc2cc(C(=O)c3cnn(-c4c(C)cc(Oc5ccccc5F)cc4F)c3N)[nH]c2cc1NS(=O)(=O)CC(=O)N1CCOCC1` [Example 4-10-009, N-[2-[5-amino-1-[2-fluoro-4-(2-fluorophenoxy)-6-methylphenyl]pyrazole-4-carbonyl]-5-methyl-1H-indol-6-yl]-2-morpholin-4-yl-2-oxoethanesulfonamide], the IC50 on human Src enzyme (setting [1]) was 33 nM; on human Yes1 enzyme (setting [1]) it was 2.7 nM; at human Lck enzyme (setting [1]), 19 nM.
The corresponding values for `Cc1cc2cc(C(=O)c3cnn(-c4ccc(Oc5ccccc5F)cc4C)c3N)[nH]c2cc1NS(=O)(=O)c1cccc(F)c1` [Example 5-1-550, N-[2-[5-amino-1-[4-(2-fluorophenoxy)-2-methylphenyl]pyrazole-4-carbonyl]-5-methyl-1H-indol-6-yl]-3-fluorobenzenesulfonamide] are 490 nM, 5.1 nM and 72 nM.
For `COc1cccc(S(=O)(=O)Nc2cc3[nH]c(C(=O)c4cnn(-c5cnc(Oc6ccccc6F)cc5C)c4N)cc3cc2OCC(F)F)c1` [Example 5-1-419, N-[2-[5-amino-1-[6-(2-fluorophenoxy)-4-methylpyridin-3-yl]pyrazole-4-carbonyl]-5-(2,2-difluoroethoxy)-1H-indol-6-yl]-3-methoxybenzenesulfonamide], in that order: 790 nM, 5.6 nM and 220 nM.
The corresponding values for `Cc1cc2cc(C(=O)c3cnn(-c4cnc(Oc5ccccc5F)cc4C)c3N)[nH]c2cc1NS(=O)(=O)c1ccccn1` [Example 5-1-477, N-[2-[5-amino-1-[6-(2-fluorophenoxy)-4-methylpyridin-3-yl]pyrazole-4-carbonyl]-5-methyl-1H-indol-6-yl]pyridine-2-sulfonamide] are 250 nM, 5.2 nM and 48 nM.
As to `Cc1cc(-n2ncc(C(=O)c3cc4cc(OC(F)F)c(N)cc4[nH]3)c2N)ccc1Oc1ccccc1F` [Example 5-1-161, [6-amino-5-(difluoromethoxy)-1H-indol-2-yl]-[5-amino-1-[4-(2-fluorophenoxy)-3-methylphenyl]pyrazol-4-yl]methanone], the results for the IC50 on human Src enzyme, on human Yes1 enzyme and at human Lck enzyme were 600 nM, 2.8 nM and 160 nM, respectively.
Take `Cc1cc(-n2ncc(C(=O)c3cc4cc(OC(F)F)c(N5CCC(N6CCOCC6)CC5)cc4[nH]3)c2N)ccc1Oc1ccccc1F` [Example 5-1-181, [5-amino-1-[4-(2-fluorophenoxy)-3-methylphenyl]pyrazol-4-yl]-[5-(difluoromethoxy)-6-(4-morpholin-4-ylpiperidin-1-yl)-1H-indol-2-yl]methanone]: the IC50 on human Src enzyme is 390 nM; on human Yes1 enzyme, 1.4 nM; on human Lck enzyme it was 41 nM.
Take `Cc1cc2cc(C(=O)c3cnn(-c4cnc(Oc5c(F)cccc5F)cc4C)c3N)[nH]c2cc1NS(=O)(=O)c1cc(F)cc(F)c1` [Example 5-1-561, N-[2-[5-amino-1-[6-(2,6-difluorophenoxy)-4-methylpyridin-3-yl]pyrazole-4-carbonyl]-5-methyl-1H-indol-6-yl]-3,5-difiuorobenzenesulfonamide]: the IC50 worked out at 940 nM on human Src enzyme (setting [1]), 17 nM on human Yes1 enzyme (setting [1]) and 270 nM at human Lck enzyme (setting [1]).
For `Nc1c(C(=O)c2cc3cc(F)c(NS(=O)(=O)C4CC4)cc3[nH]2)cnn1-c1c(F)cc(Oc2cccc(F)c2F)cc1F` [Example 5-1-031, N-[2-[5-amino-1-[4-(2,3-difluorophenoxy)-2,6-difluorophenyl]pyrazole-4-carbonyl]-5-fluoro-1H-indol-6-yl]cyclopropanesulfonamide], the IC50 at human Src enzyme came to 220 nM; at human Yes1 enzyme it was 4.1 nM; at human Lck enzyme, 34 nM.
`CC(C)N1CCC(c2cc3cc(C(=O)c4cnn(-c5ccc(Oc6cccc(Cl)c6)cc5)c4N)[nH]c3cc2F)CC1` [Example 4-2-005, [5-amino-1-[4-(3-chlorophenoxy)phenyl]pyrazol-4-yl]-[6-fluoro-5-(1-propan-2-ylpiperidin-4-yl)-1H-indol-2-yl]methanone]: the figures for the IC50 on human Src enzyme (setting [1]), on human Yes1 enzyme (setting [1]) and at human Lck enzyme (setting [1]) were 20 nM, 1.5 nM and 5 nM, respectively.
The corresponding values for `Cc1cc(Oc2ccccc2Cl)ncc1-n1ncc(C(=O)c2cc3cc(F)c(NS(C)(=O)=O)cc3[nH]2)c1N` [Example 4-2-033, N-[2-[5-amino-1-[6-(2-chlorophenoxy)-4-methylpyridin-3-yl]pyrazole-4-carbonyl]-5-fluoro-1H-indol-6-yl]methanesulfonamide] are 49 nM, 0.91 nM and 19 nM.
